From patent US7799814B2, “Thiazole derivatives and use thereof” (Merck Serono S.A., priority 2005, dated 2010)

Target: Human recombinant GST-PI3Kγ (Homo sapiens, UniProt P48736)
Assay: High Throughput PI3K Lipid Kinase Assay (scintillation proximity assay, neomycin-coated SPA beads)
Format: biochemical
Settings: not given
From the text: a) High Throughput PI3K Lipid Kinase Assay (Binding Assay):
The efficacy of compounds of the invention in inhibiting the PI3K induced-lipid phosphorylation may be tested in the following binding assay.
The assay combines the scintillation proximity assay technology (SPA, Amersham) with the capacity of neomycin (a polycationic antibiotic) to bind phospholipids with high affinity and specificity. The Scintillation Proximity Assay is based on the properties of weakly emitting isotopes (such as ^3H, ^125I, ^33P). Coating SPA beads with neomycin allows the detection of phosphorylated lipid substrates after incubation with recombinant PI3K and radioactive ATP in the same well, by capturing the radioactive phospholipids to the SPA beads through their specific binding to neomycin.
To a 384 wells MTP containing 5 μl of the test compound of Formula (I) (solubilized in 6% DMSO; to yield a concentration of 100, 30, 10, 3, 1, 0.3, 0.1, 0.03, 0.01, 01 μM of the test compound), the following assay components are added. 1) 5 μl (58 ng) of Human recombinant GST-PI3Kγ (in Hepes 40 mM, pH 7.4, DTT 1 mM and ethylenglycol 5%) 2) 10 μl of lipid micelles and 3) 10 μl of Kinase buffer ([^33P]γ ATP. 45 μM/60 nCi, MgCl mM, DTT 1 mM, β Glycerophosphate 1 mM, NVO4 100 μM, Na Cholate 0.3%, in Hepes 40 mM, pH 7.4). After incubation at room temperature for 180 minutes, with gentle agitation, the reaction is stopped by addition of 60 μl of a solution containing 100 μg of neomycin-coated PVT SPA beads in PBS containing ATP 10 mM and EDTA 5 mM. The assay is further incubated at room temperature for 60 minutes with gentle agitation to allow binding of phospholipids to neomycin-SPA beads. After precipitation of the neomycin-coated PVT SPA beads for 5 minutes at 1500×g, radioactive PtdIns(3)P is quantified by scintillation counting in a Wallac MicroBeta™ plate counter.
The values indicated in Table I below refer to the IC50 (μM) with respect to PI3Kγ, i.e. the amount necessary to achieve 50% inhibition of said target. Said values show a considerable inhibitory potency of thiazole compounds with regard to PI3Kγ.

Human recombinant GST-PI3Kγ, sequence (P48736 whole entry): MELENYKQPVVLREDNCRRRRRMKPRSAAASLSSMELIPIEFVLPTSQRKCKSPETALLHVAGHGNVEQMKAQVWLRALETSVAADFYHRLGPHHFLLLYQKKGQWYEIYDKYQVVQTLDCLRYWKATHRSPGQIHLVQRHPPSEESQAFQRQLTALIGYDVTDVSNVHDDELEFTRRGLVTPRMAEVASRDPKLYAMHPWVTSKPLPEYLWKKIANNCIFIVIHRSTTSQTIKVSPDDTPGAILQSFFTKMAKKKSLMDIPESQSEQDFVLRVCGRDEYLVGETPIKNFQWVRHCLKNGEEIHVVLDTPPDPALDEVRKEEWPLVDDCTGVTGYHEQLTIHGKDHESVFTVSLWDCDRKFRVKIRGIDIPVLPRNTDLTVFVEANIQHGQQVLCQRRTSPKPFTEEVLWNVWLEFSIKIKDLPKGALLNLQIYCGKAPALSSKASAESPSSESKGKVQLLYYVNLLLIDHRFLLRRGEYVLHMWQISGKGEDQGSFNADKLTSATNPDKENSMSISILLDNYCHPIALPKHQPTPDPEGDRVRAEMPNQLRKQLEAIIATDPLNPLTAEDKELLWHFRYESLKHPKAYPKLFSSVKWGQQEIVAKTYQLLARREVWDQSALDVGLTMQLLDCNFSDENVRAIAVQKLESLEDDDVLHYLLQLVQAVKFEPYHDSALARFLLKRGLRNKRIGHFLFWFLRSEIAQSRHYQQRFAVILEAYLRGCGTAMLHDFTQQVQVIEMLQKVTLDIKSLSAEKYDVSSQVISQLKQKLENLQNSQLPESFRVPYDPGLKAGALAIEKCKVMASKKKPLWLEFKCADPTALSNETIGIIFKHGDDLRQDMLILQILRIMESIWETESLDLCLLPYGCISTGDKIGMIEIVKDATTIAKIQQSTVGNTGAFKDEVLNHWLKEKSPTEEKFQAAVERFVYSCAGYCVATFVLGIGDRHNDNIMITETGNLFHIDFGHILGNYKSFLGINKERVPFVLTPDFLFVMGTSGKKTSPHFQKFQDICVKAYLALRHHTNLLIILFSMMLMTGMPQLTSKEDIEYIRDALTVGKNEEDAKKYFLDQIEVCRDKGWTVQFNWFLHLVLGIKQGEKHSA

| IC50 | SMILES |
| --- | --- |
| 870 nM | CCOC(=O)c1nc(-c2sc(NC(C)=O)nc2C)cs1 [Example 1, Ethyl 2′-(acetylamino)-4′-methyl-4,5′-bi-1,3-thiazole-2-carboxylate] |
| 494 nM | CC(=O)Nc1nc(C)c(-c2csc(C(=O)O)n2)s1 [Example 4, 2′-(Acetylamino)-4′-methyl-4,5′-bi-1,3-thiazole-2-carboxylic acid] |
| 355 nM | CC(=O)Nc1nc(C)c(-c2csc(C(=O)NCC3CCCO3)n2)s1 (stereo not shown) [Example 6, 2′-(Acetylamino)-4′-methyl-N-(tetrahydrofuran-2-ylmethyl)-4,5′-bi-1,3-thiazole-2-carboxamide] |
| 186 nM | CC(=O)Nc1nc(C)c(-c2csc(C(=O)N3CCOCC3)n2)s1 [Example 8, N-[4′-methyl-2-(morpholin-4-ylcarbonyl)-4,5′-bi-1,3-thiazol-2′-yl]acetamide] |
| 601 nM | CC(=O)Nc1nc(C)c(-c2csc(C(=O)N3CCN(C)CC3)n2)s1 [Example 9, N-{4′-methyl-2-[(4-methylpiperazin-1-yl)carbonyl]-4,5′-bi-1,3-thiazol-2′-yl}acetamide] |
| 2200 nM | CC(=O)Nc1nc(C)c(-c2csc(C(=O)NCCCN(C)C)n2)s1 [Example 10, 2′-(Acetylamino)-N-[3-(dimethylamino)propyl]-4′-methyl-4,5′-bi-1,3-thiazole-2-carboxamide] |
| 1540 nM | CC(=O)Nc1nc(C)c(-c2csc(C(=O)Nc3cccc(-c4nnc(N)s4)c3)n2)s1 [Example 25, 2′-(acetylamino)-N-[3-(5-amino-1,3,4-thiadiazol-2-yl)phenyl]-4′-methyl-4,5′-bi-1,3-thiazole-2-carboxamide] |
| 795 nM | COCCNC(=O)Nc1nc(C)c(-c2csc(C(=O)N3CCOCC3)n2)s1 [Example 36, N-(2-methoxyethyl)-N′-[4′-methyl-2-(morpholin-4-ylcarbonyl)-4,5′-bi-1,3-thiazol-2′-yl]urea] |
| 1420 nM | CCOC(=O)c1nc(-c2sc(Nc3cnccn3)nc2C)cs1 [Example 54, Ethyl 4′-methyl-2′-(pyrazin-2-ylamino)-4,5′-bi-1,3-thiazole-2-carboxylate] |

| SMILES | IC50 |
| --- | --- |
| CC(=O)Nc1nc(C)c(-c2csc(C(=O)Nc3nnn[nH]3)n2)s1 [Example 13, 2′-(acetylamino)-4′-methyl-N-1H-tetrazol-5-yl-4,5′-bi-1,3-thiazole-2-carboxamide] | 13 nM |
| CC(=O)Nc1nc(C)c(-c2csc(Cc3nnn[nH]3)n2)s1 [Example 23, N-[4′-methyl-2-(2H-tetrazol-5-ylmethyl)-4,5′-bi-1,3-thiazol-2′-yl]acetamide] | 328 nM |

Tested on: Akt/PKB phosphorylation in Raw 264-7 macrophages
Assay: Cell based ELISA to monitor PI3K inhibition: Akt/PKB phosphorylation in macrophages after stimulation with Complement 5a
Settings: Mus musculus, RAW264.7, 50 nM Complement 5a stimulation, phospho Serine 473 Akt, read-out: Cell Assay (P-Akt, Elisa) IC50
Description: b) Cell Based ELISA to Monitor PI3K Inhibition:
The efficacy of compounds of the invention in inhibiting the PI3K induced Akt/PKB phosphorylation may be tested in the following cell based assay.
Measurement of Akt/PKB phosphorylation in macrophages after stimulation with Complement 5a: Raw 264: Raw 264-7 macrophages (cultured in DMEM-F12 medium containing 10% Fetal Calf serum and antibiotics) are plated at 20'000 cells/well in a 96 MTP 24 h before cell stimulation. Prior to the stimulation with 50 nM of Complement 5a during 5 minutes, Cells are serum starved for 2 h, and pretreated with inhibitors for 20 minutes. After stimulation cells are fixed in 4% formaldehyde for 20 minutes and washed 3 times in PBS containing 1% Triton X-100 (PBS/Triton). […] Next, phosphorylated Akt/PKB is detected by an overnight incubation at 4° C. with primary antibody (anti phospho Serine 473 Akt IHC, Cell Signaling) diluted 800-fold in PBS/Triton, containing 5% bovine serum albumin (BSA). After 3 washes in PBS/Triton, cells are incubated for 60 minutes with a peroxidase conjugated goat-anti-rabbit secondary antibody ( 1/400 dilution in PBS/Triton, containing 5% BSA), washed 3 times in PBS/Triton, and 2 times in PBS and further incubated in 100 μl of luminescent substrate reagent solution (Pierce) for 2 minutes, followed by the reading (1 s/well). […]

| IC50 | SMILES |
| --- | --- |
| 710 nM | C=CCNC(=O)c1nc(-c2sc(NC(C)=O)nc2C)cs1 [Example 2, 2′-(Acetylamino)-N-allyl-4′-methyl-4,5′-bi-1,3-thiazole-2-carboxamide] |
| 910 nM | CC(=O)Nc1nc(C)c(-c2csc(C(=O)N3CCOCC3)n2)s1 [Example 8, N-[4′-methyl-2-(morpholin-4-ylcarbonyl)-4,5′-bi-1,3-thiazol-2′-yl]acetamide] |
